Data taken from PMC7914897, “Cytotoxic Potential of a-Azepano- and 3-Amino-3,4-SeCo-Triterpenoids” (International Journal of Molecular Sciences, 2021).

Assays:
NSC lung cancer subpanel = test: NCI-60 screen, subpanel; settings: Homo sapiens
[1] = tested on: NCI-H322M (NSC lung cancer); test: NCI-60 screen (SRB, 48 h)
Melanoma subpanel = test: NCI-60 screen, subpanel; settings: Homo sapiens
[2] = tested on: NCI-H460 (NSC lung cancer); test: NCI-60 screen (SRB, 48 h); settings: Homo sapiens
Breast cancer subpanel = test: NCI-60 screen, subpanel; settings: Homo sapiens
COLO 205 (Colon cancer) = test: NCI-60 screen (SRB, 48 h); settings: Homo sapiens
Renal Cancer subpanel = test: NCI-60 screen, subpanel; settings: Homo sapiens
A498 (Renal cancer) = test: NCI-60 screen (SRB, 48 h); settings: Homo sapiens
BT-549 (Breast cancer) = test: NCI-60 screen (SRB, 48 h); format: cell-based; settings: Homo sapiens
SK-OV-3 (Ovarian cancer) = test: NCI-60 screen (SRB, 48 h); settings: Homo sapiens
ACHN (Renal cancer) = test: NCI-60 screen (SRB, 48 h)
SW-620 (Colon cancer) = test: NCI-60 screen (SRB, 48 h); settings: Homo sapiens
UO-31 (Renal cancer) = test: NCI-60 screen (SRB, 48 h)
UACC-62 (Melanoma) = test: NCI-60 screen (SRB, 48 h); settings: Homo sapiens
OVCAR-3 (Ovarian cancer) = test: cells; settings: Homo sapiens, OVCAR-3
[3] = Homo sapiens, 48 h, read-out: TGI

Molecule `CC1(C)NCCC[C@]2(C)[C@H]3C=CC4=C5C[C@@](C)(CO)CC[C@]5(C)CC[C@@]4(C)[C@]3(C)CC[C@@H]12` [Compound 6, azepano-glycyrrhetol-diene] has an IC (TGI) (NSC lung cancer subpanel; 48 h, read-out: TGI MG_MID) of 11.2 µM, a GI50 (NSC lung cancer subpanel; read-out: GI50 MG_MID) of 3.17 µM and a CC50 (NSC lung cancer subpanel; read-out: LC50 MG_MID) of 39.1 µM. For the same molecule, the “Growth % of the Most Sensitive Cell Lines” value (“Growth %” for short) ([1]; 1 dose 10 µM) was −99.73%, the GI50 ([1]; Homo sapiens) was 4.78 µM and the IC (TGI) [1, 3] was 16.9 µM. It also gave a CC50 ([1]; Homo sapiens, read-out: LC50) of 42.1 µM, an IC (TGI) (Melanoma subpanel; 48 h, read-out: TGI MG_MID) of 11.9 µM and a GI50 (Melanoma subpanel; read-out: GI50 MG_MID) of 3.61 µM. The CC50 (Melanoma subpanel; read-out: LC50 MG_MID) was 36 µM, the GI50 ([2]; NCI-H460) was 4.17 µM and the IC (TGI) ([2]; NCI-H460, 48 h, read-out: TGI) was 15.2 µM. For the same molecule, the CC50 ([2]; NCI-H460, read-out: LC50) was 46.2 µM, the IC (TGI) (Breast cancer subpanel; 48 h, read-out: TGI MG_MID) was 19.1 µM and the GI50 (Breast cancer subpanel; read-out: GI50 MG_MID) was 6.68 µM. The CC50 (Breast cancer subpanel; read-out: LC50 MG_MID) was 55.1 µM, the GI50 (COLO 205 (Colon cancer); COLO 205) was 3.63 µM and the IC (TGI) (COLO 205 (Colon cancer); COLO 205, 48 h, read-out: TGI) was 13.9 µM. It also gave a CC50 (COLO 205 (Colon cancer); COLO 205, read-out: LC50) of 43 µM, an IC (TGI) (Renal Cancer subpanel; 48 h, read-out: TGI MG_MID) of 11.9 µM and a GI50 (Renal Cancer subpanel; read-out: GI50 MG_MID) of 4.01 µM. The CC50 (Renal Cancer subpanel; read-out: LC50 MG_MID) was 35.8 µM, the GI50 (A498 (Renal cancer); A498) was 11.4 µM and the IC (TGI) (A498 (Renal cancer); A498, 48 h, read-out: TGI) was 24.5 µM. The CC50 (A498 (Renal cancer); A498, read-out: LC50) was 52.7 µM, the GI50 (BT-549 (Breast cancer); BT-549) was 3.46 µM and the IC (TGI) (BT-549 (Breast cancer); BT-549, 48 h) was 12.7 µM. The CC50 (BT-549 (Breast cancer); BT-549, read-out: LC50 (the source's name)) was 39 µM, the GI50 (SK-OV-3 (Ovarian cancer); SK-OV-3) was 14.5 µM and the IC (TGI) (SK-OV-3 (Ovarian cancer); SK-OV-3, 48 h, read-out: TGI) was 28.6 µM. The CC50 (SK-OV-3 (Ovarian cancer); SK-OV-3, read-out: LC50) was 56.2 µM, the “Growth %” value (ACHN (Renal cancer); 1 dose 10 µM) was −95.35% and the GI50 (ACHN (Renal cancer); Homo sapiens) was 2930 nM. For the same molecule, the IC (TGI) (ACHN (Renal cancer); [3]) was 9.56 µM, the CC50 (ACHN (Renal cancer); Homo sapiens, read-out: LC50) was 33 µM and the GI50 (SW-620 (Colon cancer); SW-620) was 5.76 µM. For the same molecule, the IC (TGI) (SW-620 (Colon cancer); SW-620, 48 h, read-out: TGI) was 18.8 µM, the CC50 (SW-620 (Colon cancer); SW-620, read-out: LC50) was 47 µM and the GI50 (UO-31 (Renal cancer); Homo sapiens, UO-31) was 3.59 µM. The IC (TGI) (UO-31 (Renal cancer); Homo sapiens, UO-31, 48 h, read-out: TGI) was 15.7 µM, the CC50 (UO-31 (Renal cancer); Homo sapiens, UO-31, read-out: LC50) was 42.1 µM and the “Growth %” value (UO-31 (Renal cancer); UO-31, 1 dose 10 µM) was −98.13%. It also gave a GI50 (UACC-62 (Melanoma); UACC-62) of 3.13 µM, an IC (TGI) (UACC-62 (Melanoma); UACC-62, 48 h, read-out: TGI) of 10.9 µM and a CC50 (UACC-62 (Melanoma); UACC-62, read-out: LC50) of 37 µM. The GI50 (OVCAR-3 (Ovarian cancer)) was 2690 nM.
